Where two headings read alike, the source gives them in different places. Each block holds one compound with its values, some of them ahead of it.
Legend:
[1] = system: MCL1-wild-type (WT) MEF cells; test: cell growth inhibition, WST assay, wild-type MEF; type: cell-based; settings: Mus musculus, 72 h, 3 days
Experimental: (§1) All the SCLC cell lines were purchased from American Type Culture Collection (Manassas, VA) and cultured as recommended. All these cell lines were passaged fewer than 6 months after purchase. MCL1 knockout (MCL1^−/−) MEF cells were kindly provided by Dr. David Huang (The Walter and Eliza Hall Institute of Medical Research, Melbourne, Australia). Cell growth inhibition was evaluated by means of a WST-8 assay (Dojindo, Rockville, MD) as described previously. Mitochondrial membrane potential was determined by JC-1 staining using a JC-1 Mitochondrial Membrane Potential Assay kit (Cayman). Apoptosis analysis was performed using an Annexin V/propidium iodide (PI) apoptosis detection kit (Roche Applied Sciences, Indianapolis, IN).
(§2) (B) MCL1^−/− cells were treated with 100 nM of BM-1197 for 16 h and stained with Annexin V/PI for flow cytometry. […] They are given in the order upper left, upper right, lower left, lower right.

[2] = system: MCL1-deficient (MCL1−/−) MEF cells; test: cell growth inhibition, WST assay, MCL1-deficient MEF; type: cell-based, mouse; settings: Mus musculus, MEF, 72 h; 3 days, WST assay
Experimental: as §1, §2

Bcl-xL [3] = molecular target: T1, Bcl-xL (Mus musculus, UniProt Q64373); test: cellular thermal shift assay (CETSA), Bcl-xL; type: cell-based; settings: 1 µM, 1 h, MEF MCL1−/− cells
T1 construct: endogenous in cells; host or cells: MEF MCL1-/- cells
Experimental: (§3) Drug-target engagement was assessed using CETSA as described by Molina et al.. Briefly, cells were treated with drugs for 1 h, then harvested, washed with PBS, and resuspended in PBS. The resuspended cells were freeze-thawed 4 times. The soluble fraction (lysate) was separated from cell debris by centrifugation at 20000×g for 20 minutes at 4°C and then analyzed by Western blots.
(§4) Drug-treated cells were heated at gradient temperature from 42°C to 62°C for 3 min then freeze-thawed 4 times. The soluble fractions of the lysed cells were analyzed by immunoblotting. (B) MEF MCL1^− ^/− cells were treated with drugs at the indicated doses for 1 h before collected for CETSA.

Bcl-2 [4] = molecular target: T2, Bcl-2 (Mus musculus, UniProt P10417); test: cellular thermal shift assay (CETSA), Bcl-2; type: cell-based; settings: 1 µM, 1 h, MEF MCL1−/− cells
T2 construct: endogenous in cells; host or cells: MEF MCL1-/- cells
Experimental: as §3, §4

H146 = test: SCLC cell growth inhibition (WST-8), H146; type: cell-based; settings: Homo sapiens
Experimental: as §1
Data are representative of two independent experiments.

H1417 = test: SCLC cell growth inhibition (WST-8), H1417; type: cell-based; settings: Homo sapiens, NCI-H1417; 96-h incubation, means ± SD (n = 3–6)
Experimental: as §1

H1963 = test: SCLC cell growth inhibition (WST-8), H1963; type: cell-based; settings: Homo sapiens, NCI-H1963; 96-h incubation, means ± SD (n = 3–6)
Experimental: as §1

H211 = test: SCLC cell growth inhibition (WST-8), H211; type: cell-based; settings: Homo sapiens, NCI-H211; 96-h incubation, means ± SD (n = 3–6)
Experimental: as §1

H187 = test: SCLC cell growth inhibition (WST-8), H187; type: cell-based; settings: Homo sapiens, NCI-H187; 96-h incubation, means ± SD (n = 3–6)
Experimental: as §1

DMS79 = test: SCLC cell growth inhibition (WST-8), DMS79; type: cell-based; settings: Homo sapiens, DMS-79; 96-h incubation, means ± SD (n = 3–6)
Experimental: as §1

H889 = test: SCLC cell growth inhibition (WST-8), H889; type: cell-based; settings: Homo sapiens, NCI-H889; 96-h incubation, means ± SD (n = 3–6)
Experimental: as §1

SW1271 = test: SCLC cell growth inhibition (WST-8), SW1271; type: cell-based; settings: Homo sapiens, 96-h incubation, means ± SD (n = 3–6)
Experimental: as §1

DMS53 = test: SCLC cell growth inhibition (WST-8), DMS53; type: cell-based; settings: Homo sapiens, DMS-53; 96-h incubation, means ± SD (n = 3–6)
Experimental: as §1

H82 = test: SCLC cell growth inhibition (WST-8), H82; type: cell-based; settings: Homo sapiens, NCI-H82; 96-h incubation, means ± SD (n = 3–6)
Experimental: as §1

DMS273 = test: SCLC cell growth inhibition (WST-8), DMS273; type: cell-based; settings: Homo sapiens, DMS-273; 96-h incubation, means ± SD (n = 3–6)
Experimental: as §1

H196 = test: SCLC cell growth inhibition (WST-8), H196; type: cell-based; settings: Homo sapiens, NCI-H196; 96-h incubation, means ± SD (n = 3–6)
Experimental: as §1

H146 xenograft tumors = test: H146 subcutaneous xenograft model; type: in vivo, SCID mice
Experimental: Tumor sizes were measured 2–3 times per week. Tumor growth inhibition was calculated by using the formula: 100% (mean volume of controls - mean volume of treated)/mean volume of controls.
Figure 10 In vivo antitumor activity of BM-1197. […] Data shown are mean ± SEM for 6–8 mice. (E & F) SCID mice bearing H146 or H1963 cells were treated with 10 mg/kg of BM-1197 IV for the indicated times. Tumor lysates were analyzed by immunoblotting.

Bcl-2 [5] = molecular target: Bcl-2 (Homo sapiens, UniProt P10415); settings: cited from earlier work
Bcl-xL [6] = molecular target: Bcl-xL (Homo sapiens, UniProt Q07817); settings: cited from earlier work
[7] = system: four small-cell lung cancer cell lines sensitive to ABT-263; set-up: method as in PMID 23448298; settings: cited from earlier work
[8] = system: H146 small-cell lung cancer xenograft; set-up: method as in PMID 23448298; settings: H146 xenograft in SCID mice; cited from earlier work

T1 sequence (Q64373 whole entry): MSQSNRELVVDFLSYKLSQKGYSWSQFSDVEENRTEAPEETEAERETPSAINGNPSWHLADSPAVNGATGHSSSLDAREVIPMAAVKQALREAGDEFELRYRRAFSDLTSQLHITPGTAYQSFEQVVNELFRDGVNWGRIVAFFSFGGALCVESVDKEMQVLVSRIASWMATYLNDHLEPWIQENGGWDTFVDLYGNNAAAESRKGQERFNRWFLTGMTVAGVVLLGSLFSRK
Bcl-xL (Homo sapiens, UniProt Q07817), sequence (Q07817 whole entry): as the sequence (Q64373 whole entry) above, with E40G, A43S, R45M, S168A, D193E counted along it
Bcl-2 (Homo sapiens, UniProt P10415), sequence (P10415 whole entry): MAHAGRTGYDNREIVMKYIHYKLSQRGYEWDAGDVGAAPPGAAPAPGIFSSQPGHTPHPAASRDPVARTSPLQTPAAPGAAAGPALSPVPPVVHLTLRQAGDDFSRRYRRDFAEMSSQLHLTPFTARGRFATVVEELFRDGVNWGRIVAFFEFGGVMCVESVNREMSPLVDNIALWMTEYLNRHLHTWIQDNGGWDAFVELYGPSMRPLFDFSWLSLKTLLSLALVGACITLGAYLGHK
T2 sequence (P10417 whole entry): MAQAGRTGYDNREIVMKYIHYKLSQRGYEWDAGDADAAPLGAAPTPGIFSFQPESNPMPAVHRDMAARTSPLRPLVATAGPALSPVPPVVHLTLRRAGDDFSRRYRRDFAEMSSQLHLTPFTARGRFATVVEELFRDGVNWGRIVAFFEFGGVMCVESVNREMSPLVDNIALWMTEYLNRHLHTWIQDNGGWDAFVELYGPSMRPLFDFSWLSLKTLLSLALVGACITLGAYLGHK

thermal stability of Bcl-xL protein (Bcl-xL [3]): enhanced | thermal stability of Bcl-2 protein (Bcl-2 [4]): enhanced | IC50 (H146; NCI-H146, 96 h, read-out: IC50 (1% FBS), H146, 4 days, WST assay, 1% FBS): 3.5 nM | IC50 (H146; NCI-H146, 96 h, read-out: IC50 (1% FBS+3% HSA), H146, 4 days, WST assay, 1% FBS+3% HSA): 83 nM | IC50 (H146; NCI-H146, 96 h, read-out: IC50 (10% FBS), H146, 4 days, WST assay, 10% FBS): 26.8 nM | IC50 (H146; NCI-H146, 96 h, read-out: IC50 (50% FBS), H146, 4 days, WST assay, 50% FBS): 75.2 nM | IC50 (H146; NCI-H146, 96-h incubation, means ± SD (n = 3–6), read-out: IC50 cell growth, H146): 24 ± 12 nM | IC50 (H1417): 79 ± 31 nM | IC50 (H1963): 30 ± 17 nM | IC50 (H211): 66 ± 50 nM | IC50 (H187): 70 ± 29 nM | IC50 (H889): 30 ± 11 nM | IC50 (SW1271): > 2000 nM | IC50 (H196): > 2000 nM
SMILES: CC1(C)CCC(c2ccc(Cl)cc2)=C(CN2CCN(c3ccc(C(=O)NS(=O)(=O)c4ccc(N[C@H](CCN5CCOCC5)CSc5ccccc5)c(S(=O)(=O)C(F)(F)F)c4)cc3)CC2)C1 [ABT-263, reference compound]
IC50 [1]: > 2000 nM | IC50 [2]: 41 ± 3 nM | IC50 (DMS79): 430 ± 343 nM | IC50 (DMS53): 197 ± 50 nM | IC50 (H82): > 2000 nM | IC50 (DMS273): > 2000 nM | tumors regrown 29 days after the last treatment (H146 xenograft tumors; 100 mg/kg daily oral dosing): Four out of 8 | tumors regrown 57 days after the last treatment (H146 xenograft tumors; 100 mg/kg daily oral dosing): 7 of the 8 | tumor regression (H146 xenograft tumors; 100 mg/kg daily oral dosing (5 days per week), 14 days after the start of the treatment): regressed H146 tumors to a barely palpable state | weight loss compared to control group (H146 xenograft tumors; all dose-schedules in H146 model, no other signs of toxicity): no statistically significant weight loss

SMILES: Cc1c(C(=O)NS(C)(=O)=O)c(-c2cccc(N3CCN(c4ccc(NS(=O)(=O)c5ccc(N[C@H](CCN(C)C)CSc6ccccc6)c([N+](=O)[O-])c5)cc4)CC3)c2)c(-c2ccc(Cl)cc2)n1C(C)C [BM-1074]
Ki (Bcl-2 [5]): < 1 nM | Ki (Bcl-xL [6]): < 1 nM | IC50 ([7]; four small-cell lung cancer cell lines sensitive to ABT-263, read-out: IC50 cancer cell growth): 1 to 2 nM | times more potent than ABT-263 ([7]; four small-cell lung cancer cell lines): > 10 times | tumor regression [8]: rapid, complete, and durable tumor regression
